Data taken from patent US5571518A, “Cosmetic compositions containing tricholine citrate” (priority 1995, dated 1996).

Experiments:
Type in all cases: cell-based
human keratinocytes [1] = experiment: 3H choline incorporation into phospholipids of keratinocytes; settings: Homo sapiens, Keratinocyte, 48 hours, * statistically significant effects, read-out: 3H choline incorporated into cellular phospholipids
Description: (§1) Human keratinocytes, isolated from neonatal foreskin by trypsin treatment were grown in Dulbecco Modification Eagle (DME) Hams F12 (3:1) medium/5% fetal calf serum in the presence of mitomycin C treated 3T3 mouse fibroblasts for establishing dividing keratinocyte colonies. Cells were grown under the above condition until their second passage and kept frozen for future use. Frozen second passage keratinocytes were thawed and plated into the above medium and grown for five days. On day 5, when the cells were 70-80% confluent, they were trypsinized and plated in the serum-free medium for the various experiments.
Choline acts as an essential nutrient for the cellular phospholipid biosynthesis of keratinocytes. Choline present in the medium is used up by the cells for phospholipid biosynthesis. If TCC provides choline for the cells it will complete with the choline in the medium for incorporation into cellular phospholipids. When cells are incubated with ^3 H-labelled choline, its incorporation into phospholipids will be decreased by the presence of unlabelled choline or TCC in the medium.
[…] The wells were washed, total lipids were extracted using Bleigh Dyer method as described above and the total counts in the chloroform phase was determined. To ascertain that the counts are present only in the phospholipid fraction, the amount of ^3 H choline incorporated into the different lipid fractions were quantitated by running TLC of the fractions in the above solvent system, and the amount of radioactivity in the phospholipid fraction (origin) was quantitated using BioScan plate reader. The cpm of ^3 H choline was plotted against the amount of cold choline or TCC added in the medium to assess the competition between choline supplied from TCC with ^3 H choline.
The amount of ^3 H choline incorporated into cellular phospholipids was determined and expressed as % of controls.

human keratinocytes [2] = experiment: DNA synthesis (3H thymidine incorporation) in keratinocytes in choline-free medium; settings: Keratinocyte
Description: as §1
The incorporation of ^3 H-thymidine by cultured keratinocytes was used as an assay of keratinocyte proliferation. Thymidine is one of four deoxynucleosides which are the monomeric units of DNA, the universal library of genetic information in the animal kingdom. Prior to cell division of a somatic cell such as a keratinocyte, the complete genome of the cell undergoing cell division is replicated. This involves large scale DNA synthesis by the cell and enables both daughter cells to receive identical copies of the genetic material. When ^3 H-thymidine is included in the culture media of keratinocytes which are synthesizing DNA in preparation for cell division then the labelled nucleoside is incorporated into the newly synthesized DNA. The extent of incorporation of ^3 H-thymidine into a population of cells is proportional to the rate of DNA synthesis by this population of cells and therefore an indication of their cellular proliferation.
(§2) 4. The medium was aspirated, and the wells washed with 1 ml phosphate-buffered saline. The DNA and proteins of the cells in the plate were then precipitated by adding 1 ml of ice-cold 10% trichloroacetic acid (TCA). The plates were left on ice for 30 minutes to complete the precipitation process. TCA was then aspirated and each well was then washed four times with 5% TCA. The plates were then dried on a filter pad and the cells in the wells were dissolved in 0.5 ml of 0.1N sodium hydroxide. The sodium hydroxide was then neutralized using 0.1N hydrochloric acid and the solution (1 ml total volume) was then transferred to a scintillation vial. 50 μl samples from each vial were used for protein assay using BCA protein assay reagent obtained from Pierce Chemical Company. 8 ml of a scintillation fluid (Ecolume) was added to the rest of the solution in the vial, and the vials were counted in a scintillation counter to determine the amount of radioactivity in each vial. The DNA synthesis rate was then calculated as cpm ^3 H thymidine incorporated into total cellular DNA/microgram of cell protein for each individual well. Mean and standard deviation for each group was also calculated.
(§3) The aged epidermis may be choline deficient due to the decreased capillary circulation to the skin. To simulate the choline-deficient in vitro system, keratinocytes were plated in complete medium and 48 hours later switched to choline-free medium. The cells were then grown for five days in the choline-free medium with or without addition of different amounts of choline or TCC. To determine whether TCC can provide choline for keratinocyte proliferation under these conditions, on day 5, the amount of ^3 H thymidine incorporation into DNA was determined as in the previous experiment. The protein content of the wells were also quantitated. Both these parameters were expressed as % of control ±SD.

human keratinocytes [3] = experiment: cells; settings: Keratinocyte, five days, choline-free medium, ±SD, * statistically significant, read-out: Protein
Description: as §1, §2, §3

[4] = Signs of cytotoxicity in / tolerance by keratinocytes; settings: human, 24 hours exposure, read-out: concentration at which cells showed signs of cytotoxicity
Description: Effects of 24 hours exposure to 0.1 μM to 10 mM of citric acid, choline or the different citrate esters on keratinocyte DNA synthesis are shown in table 1. Rate of DNA synthesis calculated as cpm ^3 H thymidine incorporated into cellular DNA/μg of cell protein is expressed as % of control (no addition controls) ±SD. The actual amount of cpm/μg protein of the control is 1103 ±88.

C[N+](C)(C)CCO [Choline, choline]
activity at 10 µM (human keratinocytes [1]): 61.6 ± 7.8%
activity at 100 µM (human keratinocytes [1]): 36.9 ± 1.6%
activity at 1000 µM (human keratinocytes [1]): 10.8 ± 5.5%
activity at 1 µM (human keratinocytes [2]; 120 h, 1 μM, five days, choline-free medium, ±SD, * statistically significant): 261 ± 5.6%
activity at 10 µM (human keratinocytes [2]; 120 h, 10 μM, five days, choline-free medium, ±SD, * statistically significant): 313 ± 11.4%
activity at 100 µM (human keratinocytes [2]; 120 h, 100 μM, five days, choline-free medium, ±SD, * statistically significant): 315 ± 29.3%
activity at 1000 µM (human keratinocytes [2]; 120 h, 1000 μM, five days, choline-free medium, ±SD, * statistically significant): 297 ± 11.3%
activity at 10000 µM (human keratinocytes [2]; 120 h, 10,000 μM, five days, choline-free medium, ±SD, * statistically significant): 270 ± 11.2%
minimal effective concentration (human keratinocytes [2]; read-out: lowest concentration that increased proliferation (both DNA synthesis and protein content)): 1 µM
activity at 1 µM (human keratinocytes [3]; 120 h, 1 μM): 197 ± 21.8%
activity at 10 µM (human keratinocytes [3]; 120 h, 10 μM): 264 ± 50%
activity at 100 µM (human keratinocytes [3]; 120 h, 100 μM): 276 ± 52%
activity at 1000 µM (human keratinocytes [3]; 120 h, 1000 μM): 229 ± 29%
activity at 10000 µM (human keratinocytes [3]; 120 h, 10,000 μM): 209 ± 13.7%

CCCCOC(=O)CC(O)(CC(=O)OCCCC)C(=O)OCCCC [TBC, tributylcitrate]
activity at 10 µM (human keratinocytes [1]): 81.1 ± 7%
activity at 100 µM (human keratinocytes [1]): 121 ± 6.7%
activity at 1000 µM (human keratinocytes [1]): 81.1 ± 12%
MCC at 24 h [4]: ≥ 1 mM

CCOC(=O)CC(O)(CC(=O)OCC)C(=O)OCC [TEC, triethylcitrate]
activity at 10 µM (human keratinocytes [1]): 114 ± 9.9%
activity at 100 µM (human keratinocytes [1]): 89.2 ± 1.9%
activity at 1000 µM (human keratinocytes [1]): 82.8 ± 22%
MCC at 24 h [4]: ≥ 1 mM
